Here are results for 23 molecules from patent US20260015360A1 (MOMA Therapeutics, Inc., priority 2023, published 2026).

The target in the test is T1, biotinylated Avi-POLΘ[2-894] (Homo sapiens, UniProt O75417).
T1 construct: 1 nM biotinylated Avi-POLΘ[2-894]
T1 sequence (O75417 2-894 limits assumed): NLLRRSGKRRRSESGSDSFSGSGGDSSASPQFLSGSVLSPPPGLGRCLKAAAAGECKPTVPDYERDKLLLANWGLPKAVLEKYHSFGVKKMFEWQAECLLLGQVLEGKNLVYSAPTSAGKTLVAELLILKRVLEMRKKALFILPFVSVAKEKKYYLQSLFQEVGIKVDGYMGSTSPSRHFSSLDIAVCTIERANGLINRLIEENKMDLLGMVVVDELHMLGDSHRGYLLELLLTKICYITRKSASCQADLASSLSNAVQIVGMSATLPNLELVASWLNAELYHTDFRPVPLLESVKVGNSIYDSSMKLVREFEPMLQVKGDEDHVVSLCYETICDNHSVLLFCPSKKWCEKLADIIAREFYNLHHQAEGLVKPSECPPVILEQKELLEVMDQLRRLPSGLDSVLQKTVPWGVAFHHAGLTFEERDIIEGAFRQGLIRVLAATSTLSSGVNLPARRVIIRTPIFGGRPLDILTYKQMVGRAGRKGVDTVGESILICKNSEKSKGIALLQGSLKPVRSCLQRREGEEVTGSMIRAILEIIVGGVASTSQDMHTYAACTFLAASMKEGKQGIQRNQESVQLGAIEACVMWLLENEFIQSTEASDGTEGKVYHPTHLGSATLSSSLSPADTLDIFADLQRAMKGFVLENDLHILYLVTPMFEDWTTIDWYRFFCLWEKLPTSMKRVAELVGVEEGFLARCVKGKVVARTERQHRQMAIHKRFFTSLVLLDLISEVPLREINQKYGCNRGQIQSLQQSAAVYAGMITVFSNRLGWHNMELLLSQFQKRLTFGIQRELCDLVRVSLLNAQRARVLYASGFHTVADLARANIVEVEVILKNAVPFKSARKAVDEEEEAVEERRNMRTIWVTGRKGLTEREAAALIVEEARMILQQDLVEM
The test is described as follows: ATPase assay (ADP-Glo): POLΘ-mediated ATP hydrolysis. Conditions: read-out: Biochemical ATPase ADPGlo IC50. For orientation: In ADP-Glo the light output rises with the ADP produced.
One may read the IC50 as the midpoint of a concentration-inhibition curve. With `COc1cnc(Cl)cc1-c1cc(C)ncc1C(=O)Nc1nc2ncc(N3CCC(N(C)C)CC3)nc2s1` [Example 469, 2′-chloro-N-(6-(4-(dimethylamino)piperidin-1-yl)thiazolo[4,5-b]pyrazin-2-yl)-5′-methoxy-6-methyl-[4,4′-bipyridine]-3-carboxamide], the IC50 was in the range of 1 to 15 nM.

As to `COc1cnc(Cl)cc1-c1cc(C)ncc1C(=O)Nc1nc2ncc(C3CCOC3)nc2s1` (single isomer, unassigned) [Example 479, (S or R)-2′-chloro-5′-methoxy-6-methyl-N-(6-(tetrahydrofuran-3-yl)thiazolo[4,5-b]pyrazin-2-yl)-[4,4′-bipyridine]-3-carboxamide], the IC50 lay in the range of 1 to 15 nM.

As for `COc1cnc(Cl)cc1-c1cc(C)ncc1C(=O)Nc1nc2ncc(N3[C@H](C)COC[C@H]3C)nc2s1` [Example 423, 2′-chloro-N-(6-((3R,5R)-3,5-dimethylmorpholino)thiazolo [4,5-b]pyrazin-2-yl)-5′-methoxy-6-methyl-[4,4′-bipyridine]-3-carboxamide], the 50% inhibitory concentration (IC50) is 1 to 15 nM.

As to `COc1cnc(Cl)cc1-c1cc(C)ncc1C(=O)Nc1nc2ncc(N3CC(CO)C3)nc2s1` [Example 505, 2′-chloro-N-(6-(3-(hydroxymethyl)azetidin-1-yl)thiazolo[4,5-b]pyrazin-2-yl)-5′-methoxy-6-methyl-[4,4′-bipyridine]-3-carboxamide], the IC50 was 1 to 15 nM.

Take `COc1cnc(Cl)cc1-c1cc(C)ncc1C(=O)Nc1nc2ncc(C3CCOC3)cc2s1` (single isomer, unassigned) [Example 516, (S or R)-2′-chloro-5′-methoxy-6-methyl-N-(6-(tetrahydrofuran-3-yl)thiazolo[4,5-b]pyridin-2-yl)-[4,4′-bipyridine]-3-carboxamide]: the IC50 lay within 1 to 15 nM.

Turning to `Cc1cc(N2CCN(c3nccs3)CC2)c(C(=O)Nc2nc3ncc(-c4ccncc4)cc3s2)cn1` [Example 159, 6-methyl-N-(6-(pyridin-4-yl)thiazolo[4,5-b]pyridin-2-yl)-4-(4-(thiazol-2-yl)piperazin-1-yl)nicotinamide], the half-maximal inhibitory concentration (IC50) was 150 to 900 nM.

For `COc1cnc(Cl)cc1-c1cc(C)ncc1C(=O)Nc1nc2ncc(N3CCO[C@@H]4CCC[C@@H]43)nc2s1` [Example 395, 2′-chloro-N-(6-((4aS,7aR)-hexahydrocyclopenta[b][1,4]oxazin-4(4aH)-yl)thiazolo[4,5-b]pyrazin-2-yl)-5′-methoxy-6-methyl-[4,4′-bipyridine]-3-carboxamide], the IC50 lay in the range of 15 to 50 nM.

As for `COc1cnc(Cl)cc1-c1cc(C)ncc1C(=O)Nc1nc2ncc(N3CCOC[C@H]3C(F)(F)F)nc2s1` [Example 416, (S)-2′-chloro-5′-methoxy-6-methyl-N-(6-(3-(trifluoromethyl)morpholino)thiazolo[4,5-b]pyrazin-2-yl)-[4,4′-bipyridine]-3-carboxamide], the IC50 fell in the range of 15 to 50 nM.

Turning to `COc1ccccc1-c1cc(C)ncc1C(=O)Nc1nn2cc(C3CC3)nc2s1` [Example 168, N-(6-cyclopropylimi-dazo[2,1-b][1,3,4]thiadiazol-2-yl)-4-(2-methoxyphenyl)-6-methylnicotinamide], the IC50 was 150 to 900 nM.

For `Cc1cc(-c2c3cnccc3nn2C)c(C(=O)Nc2nc3ncc(-c4ccncc4)nc3s2)cn1` [Example 513, 6-methyl-4-(2-methyl-2H-pyrazolo[4,3-c]pyridin-3-yl)-N-(6-(pyridin-4-yl)thiazolo[4,5-b]pyrazin-2-yl)nicotinamide], the IC50 was in the range of 15 to 50 nM.

`COc1cnc(Cl)cc1-c1cc(C)ncc1C(=O)Nc1nc2ncc(N3CCO[C@@H](C)[C@H]3C)nc2s1` (single isomer, unassigned) [Example 408, 2′-chloro-N-(6-((2S or R,3R or S)-2,3-dimethylmorpholino)thiazolo [4,5-b]pyrazin-2-yl)-5′-methoxy-6-methyl-[4,4′-bipyridine]-3-carboxamide]: the IC50 is 1 to 15 nM.

Take `COc1cnc(Cl)cc1-c1cc(C)ncc1C(=O)Nc1nc2ncc(N3CC(O)C3)nc2s1` [Example 503, 2′-chloro-N-(6-(3-hydroxyazetidin-1-yl)thiazolo[4,5-b]pyrazin-2-yl)-5′-methoxy-6-methyl-[4,4′-bipyridine]-3-carboxamide]: the IC50 is 1 to 15 nM.

On to `COc1cnc(Cl)cc1-c1cc(C)ncc1C(=O)Nc1nc2ncc(N3CC[C@@H](OC)[C@H](F)C3)nc2s1` [Example 456, 2′-chloro-N-(6-((3R,4R)-3-fluoro-4-methoxypiperidin-1-yl)thiazolo[4,5-b]pyrazin-2-yl)-5′-methoxy-6-methyl-[4,4′-bipyridine]-3-carboxamide], for which the IC50 lay within 1 to 15 nM.

For the molecule `COc1cnc(Cl)cc1-c1cc(C)ncc1C(=O)Nc1nn2cc(C3CCC(CO)C3)nc2s1` (racemic) [Example 270], the IC50 is 15 to 50 nM.

As for `COc1ccccc1-c1cc(C)ncc1C(=O)Nc1nc2nnc(Cl)cc2s1` [Example 117], the IC50 lay in the range of 15 to 50 nM.

On to `COc1cnc(Cl)cc1-c1cc(C)ncc1C(=O)Nc1nc2ncc(N3[C@H](C)COC[C@@H]3C)nc2s1` [Example 404, 2′-chloro-N-(6-((3R,5S)-3,5-dimethylmorpholino)thiazolo [4,5-b]pyrazin-2-yl)-5′-methoxy-6-methyl-[4,4′-bipyridine]-3-carboxamide], for which the IC50 is 15 to 50 nM.

Consider `COc1cnc(Cl)cc1-c1cc(C)ncc1C(=O)Nc1nc2ncc(N3CCO[C@H]4CCC[C@@H]43)nc2s1` [Example 393, 2′-chloro-N-(6-((4aS,7aS)-hexahydrocyclopenta[b][1,4]oxazin-4(4aH)-yl)thiazolo[4,5-b]pyrazin-2-yl)-5′-methoxy-6-methyl-[4,4′-bipyridine]-3-carboxamide], for which the IC50 is 15 to 50 nM.

As for `COc1cnc(Cl)cc1-c1cc(C)ncc1C(=O)Nc1nc2ncc(N3CC[C@H](CO)C3)nc2s1` [Example 500, (S)-2′-chloro-N-(6-(3-(hydroxymethyl)pyrrolidin-1-yl)thiazolo[4,5-b]pyrazin-2-yl)-5′-methoxy-6-methyl-[4,4'-bipyridine]-3-carboxamide], the IC50 lay within 15 to 50 nM.

For the molecule `COc1cnc(Cl)cc1-c1cc(C)ncc1C(=O)Nc1nc2ncc(C3(OC)CCOCC3)nc2s1` [Example 373, 2′-chloro-5′-methoxy-N-(6-(4-methoxytetrahydro-2H-pyran-4-yl)thiazolo[4,5-b]pyrazin-2-yl)-6-methyl-[4,4′-bipyridine]-3-carboxamide], the IC50 fell in the range of 1 to 15 nM.

In the case of `COc1cnc(Cl)cc1-c1cc(C)ncc1C(=O)Nc1nc2ncc(N3CCCC3)nc2s1` [Example 484, 2′-chloro-5′-methoxy-6-methyl-N-(6-(pyrrolidin-1-yl)thiazolo[4,5-b]pyrazin-2-yl)-[4,4′-bipyridine]-3-carboxamide], the IC50 is 1 to 15 nM.

As to `COc1ccccc1-c1cc(C)ncc1C(=O)Nc1nc2ncc(C(F)(F)F)cc2s1` [Example 116], the IC50 lay within 15 to 50 nM.

For `COc1ccc(C#N)cc1-c1cc(C)ncc1C(=O)Nc1nn2cc(C(=O)N(C)C)nc2s1` [Example 316, 2-(4-(5-cyano-2-methoxyphenyl)-6-methylnicotinamido)-N,N-dimethylimidazo[2,1-b][1,3,4]thiadiazole-6-carboxamide], the IC50 is 15 to 50 nM.

Take `COc1ccccc1-c1cc(C)ncc1C(=O)Nc1nc2ccc(Br)cc2o1` [Example 54, N-(6-Bromobenzo[d]oxazol-2-y1)-4-(2-methoxyphenyl)-6-methylnicotinamide]: the IC50 was 15 to 50 nM.
